Assay results published in paper PMC8648660, “Multifunctional thiosemicarbazones targeting sigma receptors: in vitro and in vivo antitumor activities in pancreatic cancer models” (Cellular Oncology, 2021).

Tests used:
[1] = tested on: GRP78, ATF6, IRE1 and PERK; test: qRT-PCR of ER stress markers in pancreatic cancer cells; assay type: cell-based, human and murine; conditions: 50 µM, 2 h
Description: Total RNA was extracted using a phenol/chloroform method, after which 1 µg RNA was reverse-transcribed using an iScript Reverse Transcription Supermix kit according to the manufacturer’s instructions (Bio-Rad Laboratories). 25 ng cDNA was amplified using 10 µl of an IQ™ SYBR Green Supermix (Bio-Rad Laboratories). Primers were designed using qPrimer Depot software (http://primerdepot.nci.nih.gov/). qRT-PCR was carried out using an iQ^TM5 cycler (Bio-Rad Laboratories). The cycling conditions used were: 30 s at 95 °C, followed by 40 cycles of denaturation (15 s at 95 °C) and annealing/extension (30 s at 60 °C). The same cDNA preparations were used to quantify the expression of genes of interest and that of the housekeeping gene S14, which was used to normalize the gene expression levels. Relative quantitation of each sample was performed using Gene Expression Quantitation software (Bio-Rad Laboratories). The results were expressed in arbitrary units. For each gene, the expression level in untreated cells was arbitrarily set at “1”.

MiaPaCa2 cells = tested on: MiaPaCa2 cells; set-up: method as in PMID 29287249; conditions: cited from earlier work
AspC1 cells = tested on: AspC1 cells; set-up: method as in PMID 29287249; conditions: cited from earlier work
BxPC3 cells = tested on: BxPC3 cells; set-up: method as in PMID 29287249; conditions: cited from earlier work
PANC-1 cells = tested on: PANC-1 cells; set-up: method as in PMID 29287249; conditions: cited from earlier work
KP02 cells = tested on: KP02 cells; set-up: method as in PMID 29287249; conditions: cited from earlier work
PANC02 cells = tested on: PANC02 cells; set-up: method as in PMID 29287249; conditions: cited from earlier work
HPDE cells = tested on: HPDE cells; set-up: method as in PMID 29287249; conditions: read-out: Activity EC50, HPDE (normal cells); cited from earlier work
[2] = tested on: sigma-1 and sigma-2 receptor subtypes; set-up: method as in PMID 24106081; conditions: cited from earlier work
PANC-1 xenografts = test: In vivo xenograft assay, PANC-1; set-up: species or system mice; conditions: for tumor growth: gemcitabine 20 mg/kg twice a week
Description: 2 × 10^5 PANC-1 or Mia-PaCa2 cells were inoculated subcutaneously in the right flank of 6-week old C57BL/6 female nude mice (Charles River Laboratories Italia, Calco), housed (5 per cage) under a 12 h light/dark cycle, with food and drinking water provided ad libitum. Tumor growth was measured daily by caliper, according to the equation (LxW^2)/2, where L = tumor length and W = tumor width. When tumors reached a volume of 100 mm^3, the mice (n = 8/group) were randomized in the following groups and treated daily for 15 days or 30 days intraperitoneally as reported: (1) Vehicle group (100 µl saline solution), (2) FA4^low group (750 nmol FA4 in 100 µl saline solution), (3) FA4^high group (1500 nmol FA4 in 100 µl saline solution) and (4) Gemcitabine group (20 mg/kg gemcitabine, twice a week). Tumor volumes and animal weights were monitored daily. Animals were euthanized at day 18 or 36 after randomization with zolazepam (0.2 ml/kg) and xylazine (16 mg/kg). Next, tumors were excised and paraffin-embedded. Sections were immuno-stained for cleaved caspase 3 (Cell Signalling Technology, Danvers, MA, USA) or with an anti-malondialdehyde antibody (Abcam), followed by a peroxidase-conjugated secondary antibody (Dako, Glostrup, Denmark). The sections were examined under a Leica DC100 microscope (Leica, Wetzlar, Germany). Quantification of the immunohistochemical analyses was performed using ImageJ software (https://imagej.nih.gov/). The staining intensities were expressed as arbitrary units and considered 1 in the vehicle group.

[3] = Systemic toxicity and hematochemical parameters of treated PANC-1 tumor-bearing mice; conditions: gemcitabine 20 mg/kg twice a week; mean ± SD
Description: 2 × 10^5 PANC-1 or Mia-PaCa2 cells were inoculated subcutaneously in the right flank of 6-week old C57BL/6 female nude mice (Charles River Laboratories Italia, Calco), housed (5 per cage) under a 12 h light/dark cycle, with food and drinking water provided ad libitum. Tumor growth was measured daily by caliper, according to the equation (LxW^2)/2, where L = tumor length and W = tumor width. […] Tumor volumes and animal weights were monitored daily. Animals were euthanized at day 18 or 36 after randomization with zolazepam (0.2 ml/kg) and xylazine (16 mg/kg). […] Red blood cell (RBC) count, hemoglobin (Hb), white blood cell (WBC) count, platelet (PLT) count, lactate dehydrogenase (LDH), aspartate aminotransferase (AST), alanine aminotransferase (ALT), alkaline phosphatase (AP), creatinine and creatine phosphokinase (CPK) were measured in blood samples collected immediately after euthanasia, using commercially available kits from Beckman Coulter Inc (Beckman Coulter, Miami, FL, USA).
Blood was collected immediately after euthanasia and analyzed for red blood cells (RBC) count, hemoglobin (Hb), white blood cells (WBC) count, platelets (PLT) count, lactate dehydrogenase (LDH), aspartate aminotransferase (AST), alanine aminotransferase (ALT), alkaline phosphatase (AP), creatinine, creatine phosphokinase (CPK). Data are presented as means ± SD.

MiaPaCa2 xenografts = test: In vivo xenograft assay, MiaPaCa2; set-up: species or system mice; conditions: gemcitabine 20 mg/kg twice a week, 15 days
Description: 2 × 10^5 PANC-1 or Mia-PaCa2 cells were inoculated subcutaneously in the right flank of 6-week old C57BL/6 female nude mice (Charles River Laboratories Italia, Calco), housed (5 per cage) under a 12 h light/dark cycle, with food and drinking water provided ad libitum. Tumor growth was measured daily by caliper, according to the equation (LxW^2)/2, where L = tumor length and W = tumor width. When tumors reached a volume of 100 mm^3, the mice (n = 8/group) were randomized in the following groups and treated daily for 15 days or 30 days intraperitoneally as reported: (1) Vehicle group (100 µl saline solution), (2) FA4^low group (750 nmol FA4 in 100 µl saline solution), (3) FA4^high group (1500 nmol FA4 in 100 µl saline solution) and (4) Gemcitabine group (20 mg/kg gemcitabine, twice a week). Tumor volumes and animal weights were monitored daily. Animals were euthanized at day 18 or 36 after randomization with zolazepam (0.2 ml/kg) and xylazine (16 mg/kg). Next, tumors were excised and paraffin-embedded. […] Quantification of the immunohistochemical analyses was performed using ImageJ software (https://imagej.nih.gov/). The staining intensities were expressed as arbitrary units and considered 1 in the vehicle group.

Compound | mRNA expression of ER stress markers GRP78, ATF6, IRE1, PERK [1] | EC50 (MiaPaCa2 cells) [µM] | EC50 (AspC1 cells) [µM] | EC50 (BxPC3 cells) [µM] | EC50 (PANC-1 cells) [µM] | EC50 (KP02 cells) [µM] | EC50 (PANC02 cells) [µM] | EC50 (HPDE cells) [µM] | also measured
CN(C)C(=S)N/N=C1\C(=O)N(CCCCN2CCN(C3CCCCC3)CC2)c2ccccc21 [PS3, (Z)-2-[1-[4-(4-cyclohexylpiperazin-1-yl)butyl]-2-oxoindolin-3-ylidene]-N,N-dimethylhydrazinecarbothioamide] | none of the markers was increased in the other cells | 10.1 | 3.86 | 6.15 | 8.73 | 7.32 | 1.17 | 5.35 | –
CN(C)C(=S)N/N=C1\C(=O)Nc2ccccc21 [ACthio-1, (Z)-N,N-dimethyl-2-(2-oxoindolin-3-ylidene)hydrazinecarbothioamide] | none of the markers was increased in the other cells | 18.3 | 2.17 | 2.52 | > 100 | 2.83 | 1.21 | 10.5 | –
COc1cc2c(cc1OC)CN(CCCCN1C(=O)/C(=N\NC(=S)N(C)C)c3ccccc31)CC2 [MLP44, (Z)-2-(1-(4-(6,7-dimethoxy-3,4-dihydroisoquinolin-2(1H)-yl)butyl)-2-oxoindolin-3-ylidene)-N,N-dimethylhydrazinecarbothioamide] | none of the markers was increased in the other cells | 14.6 | 2.01 | 2.34 | 14.6 | 6.92 | 1.33 | 9.5 | –
Fc1ccc(-n2cc(CCCCN3CCC4(CC3)OCc3ccccc34)c3ccccc32)cc1 [siramesine] | – | – | – | – | – | – | – | – | binding to sigma-1 versus sigma-2 receptor subtypes [2]: binds equally well to the sigma-1 and sigma-2 receptor subtypes
Nc1ccn([C@@H]2O[C@H](CO)[C@@H](O)C2(F)F)c(=O)n1 [gemcitabine] | – | – | – | – | – | – | – | – | tumor growth (PANC-1 xenografts; 15 days): ineffective against this tumor cell line; tumor growth (PANC-1 xenografts; 30 days): not able to significantly reduce tumor growth; intratumor apoptosis (cleaved caspase 3) and lipid peroxidation (PANC-1 xenografts; gemcitabine, 30 days): low or undetectable; ALT [3]: 36±12 U/l; AP [3]: 134±43 U/l; AST [3]: 142±18 U/l; CPK [3]: 309±32 U/l; Hb [3]: 11.03 ± 1.94 g/dL; LDH [3]: 6704±832 U/l; PLT [3]: 931±165 x 10^3/µl; RBC [3]: 11.28±0.98 x 10^6/µl; WBC [3]: 12.18±2.39 x 10^3/µl; tumor growth (MiaPaCa2 xenografts): MiaPaCa2 tumors were more sensitive to gemcitabine
